# Measured values published in patent US20140343145A1, “RBP1 as a Molecular Biomarker for Predicting Survival and Response to Treatment in Glioma” (The Regents of the University of California, priority 2011, published 2014).
# Entries after “also recorded” stand apart in the source; their conditions may differ.
# Assays:
# [1] = test system: primary glioblastoma multiforme patients; assay: Kaplan-Meier analysis of overall survival in the GBM Survival Cohort (124 primary glioblastoma patients) by RBP1 methylation and isotretinoin treatment; format: in vivo, human
# Excerpt: FIGS. 10A-10B show the Kaplan-Meier analysis of overall survival (OS) in a cohort of 124 primary glioblastoma mulitforme patients with respect to RBP1 methylation and isotretinoin (ITR) treatment. FIG. 10A provides RBP1-unmethylated patients treated (solid, n=19) vs untreated with isotretinoin (dotted, n=83). FIG. 10B provides RBP1-methylated patients treated (solid, n=7) and untreated with isotretinoin (dotted, n=15). RBP1=retinol binding protein 1; WT=wild-type; MUT=mutant; ITR=isotretinoin.
# Within the 198-patient Total Cohort, 124 samples that were obtained from treatment-naïve primary GBM patients with detailed clinical information were retrospectively identified. Patients were treated with a combination of radiation (RT) and temozolomide (TMZ) after surgical resection (Stupp R, et al. N Engl J Med 2005; 352(10):987-96). Overall survival (OS) was defined as the date of diagnosis to date of death from any cause. For patients lost to follow-up without obtainable date of death, censoring date was last clinic visit or contact. If the last clinic or contact was after the Sep. 9, 2011 freeze date, the patient was censored at […]. […]
# Correlation between IDH1 mutation and RBP1 methylation was determined using the Spearman correlation test. […]
# [2] = test system: patients with primary glioblastoma; assay: Kaplan-Meier analysis of overall survival in a preliminary cohort of 414 primary glioblastoma patients, with or without upfront isotretinoin; format: in vivo, human
# Description: Survival for an unpublished preliminary cohort of 414 patients with primary glioblastoma were analyzed with Kaplan-Meier analysis. Survival curves for patients with wild-type or IDH1/2 mutant genotypes with or without upfront treatment with isotretinoin, in combination with standard-of-care debulking surgery, temozolomide, and radiation therapy, are shown. […] WT=wild-type, MUT=IDH1 MUT, ITR=isotretinoin (13-cis retinoic acid).
# Specifically, the median overall survival for IDH1 mutant glioblastoma patients treated with isotretinoin was 81 months as compared with 36 months for similar IDH1 mutant glioblastoma patients who were not treated with isotretinoin. […] Therefore, in some embodiments, the present invention is directed to methods of treating IDH1/IDH2 mutant gliomas in subjects, which comprise administering to the subjects having been diagnosed with an IDH1 and/or an IDH2 mutation and/or RBP1 promoter hypermethylation one or more retinoids.
# [3] = test system: unselected glioma patients; conditions: patients not selected for any biomarker/mutation (Yung 1996); cited from earlier work
smiles,measurement,setting,value
"CC1=C(/C=C/C(C)=C/C=C/C(C)=C\C(=O)O)C(C)(C)CCC1 [isotretinoin, 13-cis retinoic acid]",median OS (overall survival),"[1]; RBP1-methylated primary GBM patients who received isotretinoin (n=7), untreated 36.7 months, P=0.53",82.5 months
same,median OS (overall survival),"[1]; RBP1-unmethylated primary GBM patients who received adjuvant isotretinoin with temozolomide (n=19), untreated 19.8 months, P=0.25",22.0 months
same,median overall survival,"[2]; IDH1 mutant glioblastoma patients treated with isotretinoin, 36 months for similar patients not treated",81 months
same,"effect on overall survival, IDH1/IDH2 mutant glioblastoma","[2]; upfront isotretinoin with standard-of-care debulking surgery, temozolomide and radiation, patients with IDH1 or IDH2 mutant glioblastoma",significantly improve the overall survival; also recorded: significantly increased overall survival
same,"effect on overall survival, wild-type tumors","[2]; upfront isotretinoin with standard-of-care debulking surgery, temozolomide and radiation, patients with wild-type tumors (WT)",only modest increase in overall survival
same,efficacy in unselected glioma patients,[3],little to only modest efficacy
